From PMC8429728, “TNK1 is a ubiquitin-binding and 14-3-3-regulated kinase that can be targeted to block tumor growth” (Nature Communications, 2021)
Where two headings read alike, the source gives them in different places.

What was measured:
Experiment in all cases: biochemical
Design in all cases: Reaction Biology 371-kinase panel at Km ATP, per cent enzyme activity relative to DMSO, single dose in duplicate
CAMKK2 = CAMKK2 (Homo sapiens, UniProt Q96RR4); details: duplicate measurements, Km ATP
Summary of the method: (§1)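 In vitro selectivity panel: 371 kinases, inhibitor at 300 nM; % activity vs DMSO; IC50 by variable-slope sigmoidal fit, bottom = 0.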

DYRK1/DYRK1A = DYRK1/DYRK1A (Homo sapiens, UniProt Q13627); details: duplicate measurements, Km ATP
Summary of the method: as §1

EPHA7 = EPHA7 (Homo sapiens, UniProt Q15375); details: duplicate measurements, Km ATP
Summary of the method: as §1

FLT3 = FLT3 (Homo sapiens, UniProt P36888); details: duplicate measurements, Km ATP
Summary of the method: as §1

GLK/MAP4K3 = GLK/MAP4K3 (Homo sapiens, UniProt Q8IVH8); details: duplicate measurements, Km ATP
Summary of the method: as §1

HGK/MAP4K4 = HGK/MAP4K4 (Homo sapiens, UniProt O95819); details: duplicate measurements, Km ATP
Summary of the method: as §1

IRAK1 = IRAK1 (Homo sapiens, UniProt P51617); details: duplicate measurements, Km ATP
Summary of the method: as §1

JAK3 = JAK3 (Homo sapiens, UniProt P52333); details: duplicate measurements, Km ATP
Summary of the method: as §1

JNK1 = biological target: T1, JNK1 (Homo sapiens, UniProt P45983); details: duplicate measurements, Km ATP; read-out: % Enzyme Activity (relative to DMSO controls) / TP-0005801 (0.3µM) / Data 1
T1 construct: gene MAPK8
Summary of the method: as §1

LIMK1 = LIMK1 (Homo sapiens, UniProt P53667); details: duplicate measurements, Km ATP; read-out: % Enzyme Activity (relative to DMSO controls) / TP-0005801 (0.3µM) / Data 1
Summary of the method: as §1

MARK2/PAR-1Ba = MARK2/PAR-1Ba (Homo sapiens, UniProt Q7KZI7); details: duplicate measurements, Km ATP
Summary of the method: as §1

MASTL = MASTL (Homo sapiens, UniProt Q96GX5); details: duplicate measurements, Km ATP
Summary of the method: as §1

MINK/MINK1 = MINK/MINK1 (Homo sapiens, UniProt Q8N4C8); details: duplicate measurements, Km ATP
Summary of the method: as §1

P38b/MAPK11 = P38b/MAPK11 (Homo sapiens, UniProt Q15759); details: duplicate measurements, Km ATP
Summary of the method: as §1

P38d/MAPK13 = P38d/MAPK13 (Homo sapiens, UniProt O15264); details: duplicate measurements, Km ATP
Summary of the method: as §1

PAK5 = PAK5 (Homo sapiens, UniProt Q9P286); details: duplicate measurements, Km ATP
Summary of the method: as §1

RSK4 = biological target: T2, RSK4 (Homo sapiens, UniProt Q9UK32); details: duplicate measurements, Km ATP
T2 construct: gene RPS6KA6
Summary of the method: as §1

SGK2 = SGK2 (Homo sapiens, UniProt Q9HBY8); details: duplicate measurements, Km ATP
Summary of the method: as §1

SIK3 = SIK3 (Homo sapiens, UniProt Q9Y2K2); details: duplicate measurements, Km ATP
Summary of the method: as §1

WNK2 = WNK2 (Homo sapiens, UniProt Q9Y3S1); details: duplicate measurements, Km ATP
Summary of the method: as §1

[1] = read-out: % Enzyme Activity (relative to DMSO controls) / TP-0005801 (0.3µM) / Data 1
[2] = read-out: % Enzyme Activity (relative to DMSO controls) / TP-0005801 (0.3µM) / Data 2

T2 sequence (Q9UK32 whole entry): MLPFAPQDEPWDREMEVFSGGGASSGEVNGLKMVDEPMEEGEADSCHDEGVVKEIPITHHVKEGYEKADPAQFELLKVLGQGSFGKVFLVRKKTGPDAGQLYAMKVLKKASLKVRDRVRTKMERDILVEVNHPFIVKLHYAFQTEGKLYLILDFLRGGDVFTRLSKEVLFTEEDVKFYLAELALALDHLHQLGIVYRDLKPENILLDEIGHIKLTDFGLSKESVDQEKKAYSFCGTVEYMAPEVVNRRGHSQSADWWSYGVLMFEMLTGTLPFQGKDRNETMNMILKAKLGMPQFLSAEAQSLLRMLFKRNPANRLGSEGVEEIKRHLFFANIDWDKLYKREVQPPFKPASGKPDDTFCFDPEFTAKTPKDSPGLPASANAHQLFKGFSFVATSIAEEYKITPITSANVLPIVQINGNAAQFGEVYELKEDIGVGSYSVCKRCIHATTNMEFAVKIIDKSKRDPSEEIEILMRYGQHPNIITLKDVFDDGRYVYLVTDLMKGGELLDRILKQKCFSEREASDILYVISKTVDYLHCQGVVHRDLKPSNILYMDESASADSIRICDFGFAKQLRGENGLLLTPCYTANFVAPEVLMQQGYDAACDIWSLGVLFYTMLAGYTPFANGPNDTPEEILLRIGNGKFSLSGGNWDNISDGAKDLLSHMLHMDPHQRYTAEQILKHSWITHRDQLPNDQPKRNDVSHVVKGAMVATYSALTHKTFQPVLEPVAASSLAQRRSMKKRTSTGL
Sequence of WNK2 (Q9Y3S1 whole entry): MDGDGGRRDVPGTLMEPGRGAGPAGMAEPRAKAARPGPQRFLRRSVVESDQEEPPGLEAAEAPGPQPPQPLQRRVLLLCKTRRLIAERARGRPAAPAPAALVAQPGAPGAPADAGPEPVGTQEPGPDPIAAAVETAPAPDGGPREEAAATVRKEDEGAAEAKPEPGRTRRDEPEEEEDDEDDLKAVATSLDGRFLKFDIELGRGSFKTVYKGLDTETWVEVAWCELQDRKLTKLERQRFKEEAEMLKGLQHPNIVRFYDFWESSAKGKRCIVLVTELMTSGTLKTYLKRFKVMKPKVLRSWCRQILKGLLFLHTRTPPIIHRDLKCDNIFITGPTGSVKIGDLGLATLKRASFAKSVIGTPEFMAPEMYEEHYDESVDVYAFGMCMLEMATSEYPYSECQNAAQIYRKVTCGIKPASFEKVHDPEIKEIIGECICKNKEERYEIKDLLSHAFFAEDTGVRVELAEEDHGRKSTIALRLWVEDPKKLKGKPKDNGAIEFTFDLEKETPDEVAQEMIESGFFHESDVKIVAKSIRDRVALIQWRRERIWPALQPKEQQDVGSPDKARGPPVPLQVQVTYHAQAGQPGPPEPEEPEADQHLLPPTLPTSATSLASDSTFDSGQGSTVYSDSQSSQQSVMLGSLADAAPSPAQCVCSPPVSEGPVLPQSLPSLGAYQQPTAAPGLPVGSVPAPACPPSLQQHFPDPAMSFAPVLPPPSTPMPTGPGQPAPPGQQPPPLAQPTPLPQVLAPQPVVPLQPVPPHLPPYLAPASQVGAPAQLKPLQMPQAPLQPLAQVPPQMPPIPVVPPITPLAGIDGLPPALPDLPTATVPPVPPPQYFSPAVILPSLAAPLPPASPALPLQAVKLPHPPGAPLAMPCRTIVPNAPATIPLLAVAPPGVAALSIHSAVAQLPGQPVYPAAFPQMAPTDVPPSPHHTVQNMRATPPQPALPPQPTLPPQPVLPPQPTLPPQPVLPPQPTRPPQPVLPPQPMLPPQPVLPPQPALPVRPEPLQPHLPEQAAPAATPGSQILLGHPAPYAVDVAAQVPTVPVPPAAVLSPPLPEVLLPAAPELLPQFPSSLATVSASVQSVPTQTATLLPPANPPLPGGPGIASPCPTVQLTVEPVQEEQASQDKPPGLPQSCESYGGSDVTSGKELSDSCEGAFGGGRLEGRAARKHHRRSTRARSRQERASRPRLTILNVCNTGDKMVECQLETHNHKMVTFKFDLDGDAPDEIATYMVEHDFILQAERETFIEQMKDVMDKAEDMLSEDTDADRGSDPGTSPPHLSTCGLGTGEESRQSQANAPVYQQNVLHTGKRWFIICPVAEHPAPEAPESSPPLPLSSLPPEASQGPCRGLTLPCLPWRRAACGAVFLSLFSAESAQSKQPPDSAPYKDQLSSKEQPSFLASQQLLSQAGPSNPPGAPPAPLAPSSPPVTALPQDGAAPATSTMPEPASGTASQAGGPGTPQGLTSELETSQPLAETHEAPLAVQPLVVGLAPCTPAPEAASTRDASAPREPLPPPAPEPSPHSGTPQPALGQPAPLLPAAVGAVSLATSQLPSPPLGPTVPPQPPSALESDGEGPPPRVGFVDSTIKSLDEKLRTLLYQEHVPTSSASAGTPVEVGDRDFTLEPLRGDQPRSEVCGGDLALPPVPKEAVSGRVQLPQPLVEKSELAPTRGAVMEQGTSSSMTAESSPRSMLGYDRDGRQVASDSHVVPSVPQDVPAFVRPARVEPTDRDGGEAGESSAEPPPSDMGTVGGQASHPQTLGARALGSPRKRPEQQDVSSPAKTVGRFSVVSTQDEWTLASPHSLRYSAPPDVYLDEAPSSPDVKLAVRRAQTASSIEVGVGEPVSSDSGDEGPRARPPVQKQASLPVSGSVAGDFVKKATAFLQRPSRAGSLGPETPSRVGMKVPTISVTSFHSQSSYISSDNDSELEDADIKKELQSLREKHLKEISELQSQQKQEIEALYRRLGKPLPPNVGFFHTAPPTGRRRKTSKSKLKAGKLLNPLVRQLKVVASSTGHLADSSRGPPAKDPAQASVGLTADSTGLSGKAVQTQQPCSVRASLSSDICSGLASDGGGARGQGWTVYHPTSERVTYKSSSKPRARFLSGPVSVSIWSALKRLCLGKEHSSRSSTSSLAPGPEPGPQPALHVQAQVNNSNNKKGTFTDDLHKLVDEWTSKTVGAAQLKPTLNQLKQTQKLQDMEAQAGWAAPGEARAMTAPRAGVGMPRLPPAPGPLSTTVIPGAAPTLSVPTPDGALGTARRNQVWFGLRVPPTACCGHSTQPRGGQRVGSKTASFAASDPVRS
Sequence of P38d/MAPK13 (O15264 whole entry): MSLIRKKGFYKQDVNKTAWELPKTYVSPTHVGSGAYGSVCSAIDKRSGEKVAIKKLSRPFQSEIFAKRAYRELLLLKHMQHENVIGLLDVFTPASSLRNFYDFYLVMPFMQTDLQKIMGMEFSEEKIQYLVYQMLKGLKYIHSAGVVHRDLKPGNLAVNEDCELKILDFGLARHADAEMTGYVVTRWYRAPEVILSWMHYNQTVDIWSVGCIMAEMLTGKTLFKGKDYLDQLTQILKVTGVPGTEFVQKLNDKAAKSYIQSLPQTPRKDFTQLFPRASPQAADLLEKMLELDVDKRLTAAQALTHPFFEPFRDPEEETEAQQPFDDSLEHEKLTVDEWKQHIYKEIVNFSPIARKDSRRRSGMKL
Sequence of SGK2 (Q9HBY8 whole entry): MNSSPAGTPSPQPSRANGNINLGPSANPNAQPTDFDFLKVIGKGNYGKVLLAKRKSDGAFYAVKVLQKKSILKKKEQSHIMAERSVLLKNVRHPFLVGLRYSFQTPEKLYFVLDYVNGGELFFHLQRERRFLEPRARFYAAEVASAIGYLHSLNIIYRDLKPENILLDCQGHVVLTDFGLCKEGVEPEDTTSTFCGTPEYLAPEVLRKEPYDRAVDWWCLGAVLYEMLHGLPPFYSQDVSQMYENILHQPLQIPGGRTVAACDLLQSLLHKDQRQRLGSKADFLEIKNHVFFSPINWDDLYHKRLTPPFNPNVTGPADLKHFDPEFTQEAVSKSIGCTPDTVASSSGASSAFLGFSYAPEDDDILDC
Sequence of P38b/MAPK11 (Q15759 whole entry): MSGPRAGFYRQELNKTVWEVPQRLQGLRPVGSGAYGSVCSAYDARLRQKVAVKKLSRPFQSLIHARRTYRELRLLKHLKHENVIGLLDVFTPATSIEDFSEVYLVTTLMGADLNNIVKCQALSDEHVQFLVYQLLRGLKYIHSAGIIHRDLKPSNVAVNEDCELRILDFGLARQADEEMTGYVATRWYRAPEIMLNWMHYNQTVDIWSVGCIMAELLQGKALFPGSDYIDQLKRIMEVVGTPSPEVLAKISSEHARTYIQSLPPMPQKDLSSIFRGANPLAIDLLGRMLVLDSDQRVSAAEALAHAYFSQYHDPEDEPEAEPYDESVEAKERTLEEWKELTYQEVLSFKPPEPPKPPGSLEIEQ
Sequence of MARK2/PAR-1Ba (Q7KZI7 whole entry): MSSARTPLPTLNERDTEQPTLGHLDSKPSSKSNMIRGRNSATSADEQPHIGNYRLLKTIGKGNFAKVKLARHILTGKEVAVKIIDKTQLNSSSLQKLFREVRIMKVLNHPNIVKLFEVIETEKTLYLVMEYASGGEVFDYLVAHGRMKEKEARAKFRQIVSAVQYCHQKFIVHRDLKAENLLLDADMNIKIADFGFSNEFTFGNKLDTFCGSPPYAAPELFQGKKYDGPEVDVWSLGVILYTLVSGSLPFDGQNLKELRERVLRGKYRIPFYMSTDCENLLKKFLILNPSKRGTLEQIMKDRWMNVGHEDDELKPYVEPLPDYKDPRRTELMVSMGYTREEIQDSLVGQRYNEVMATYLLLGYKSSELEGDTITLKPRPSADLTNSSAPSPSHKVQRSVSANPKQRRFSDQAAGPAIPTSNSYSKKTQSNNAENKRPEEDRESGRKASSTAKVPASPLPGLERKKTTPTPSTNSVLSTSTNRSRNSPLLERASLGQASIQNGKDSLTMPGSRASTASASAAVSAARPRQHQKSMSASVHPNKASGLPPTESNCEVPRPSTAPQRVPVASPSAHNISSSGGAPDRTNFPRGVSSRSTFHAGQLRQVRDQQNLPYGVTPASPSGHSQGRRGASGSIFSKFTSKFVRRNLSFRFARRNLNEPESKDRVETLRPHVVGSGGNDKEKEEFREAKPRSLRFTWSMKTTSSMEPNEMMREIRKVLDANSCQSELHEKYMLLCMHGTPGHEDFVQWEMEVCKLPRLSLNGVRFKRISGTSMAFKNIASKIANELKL

SMILES: COc1cc(N2CCN(C)CC2)c(C)cc1Nc1ncc(Br)c(Nc2cccnc2N(C)C)n1 [TP-5801]
- remaining activity at 0.3 µM (CAMKK2; [1]): 31.9%
- remaining activity at 0.3 µM (CAMKK2; [2]): 30.2%
- remaining activity at 0.3 µM (DYRK1/DYRK1A; [1]): 86.5%
- remaining activity at 0.3 µM (DYRK1/DYRK1A; [2]): 85.9%
- remaining activity at 0.3 µM (EPHA7; [1]): 95.2%
- remaining activity at 0.3 µM (EPHA7; [2]): 94%
- remaining activity at 0.3 µM (FLT3; [1]): 3.9%
- remaining activity at 0.3 µM (FLT3; [2]): 3.79%
- remaining activity at 0.3 µM (GLK/MAP4K3; [1]): 35%
- remaining activity at 0.3 µM (GLK/MAP4K3; [2]): 34.3%
- remaining activity at 0.3 µM (HGK/MAP4K4; [1]): 103%
- remaining activity at 0.3 µM (HGK/MAP4K4; [2]): 102%
- remaining activity at 0.3 µM (IRAK1; [1]): 87.2%
- remaining activity at 0.3 µM (IRAK1; [2]): 83.4%
- remaining activity at 0.3 µM (JAK3; [1]): 29.3%
- remaining activity at 0.3 µM (JAK3; [2]): 28.7%
- remaining activity at 0.3 µM (JNK1): 74.7%
- remaining activity at 0.3 µM (LIMK1): 104%
- remaining activity at 0.3 µM (MARK2/PAR-1Ba; [1]): 93.2%
- remaining activity at 0.3 µM (MARK2/PAR-1Ba; [2]): 92.1%
- remaining activity at 0.3 µM (MASTL; [1]): 97%
- remaining activity at 0.3 µM (MASTL; [2]): 96.1%
- remaining activity at 0.3 µM (MINK/MINK1; [1]): 95.6%
- remaining activity at 0.3 µM (MINK/MINK1; [2]): 89.2%
- remaining activity at 0.3 µM (P38b/MAPK11; [1]): 102%
- remaining activity at 0.3 µM (P38b/MAPK11; [2]): 101%
- remaining activity at 0.3 µM (P38d/MAPK13; [1]): 102%
- remaining activity at 0.3 µM (P38d/MAPK13; [2]): 91.4%
- remaining activity at 0.3 µM (PAK5; [1]): 86.5%
- remaining activity at 0.3 µM (PAK5; [2]): 85.3%
- remaining activity at 0.3 µM (RSK4; [1]): 79.4%
- remaining activity at 0.3 µM (RSK4; [2]): 77.9%
- remaining activity at 0.3 µM (SGK2; [1]): 93.7%
- remaining activity at 0.3 µM (SGK2; [2]): 92.7%
- remaining activity at 0.3 µM (SIK3; [1]): 96.1%
- remaining activity at 0.3 µM (SIK3; [2]): 93.9%
- remaining activity at 0.3 µM (WNK2; [1]): 96.6%
- remaining activity at 0.3 µM (WNK2; [2]): 93.9%
